# Source: the supplement of paper PMC10307832
# Compound: C1=CC2=C(C=C(C(=C2N=C1)O)N=NC3=CC4=C(C=C3)C=C(C=C4)S(=O)(=O)O)S(=O)(=O)O + COc1cc2c(Oc3ccc(NC(=O)C4(C(=O)Nc5ccc(F)cc5)CC4)cc3F)ccnc2cc1OCCCN1CCOCC1 [Foretinib] (partner 0.25 µM)
# Assay: relative viability (nuclei count vs DMSO), 5 days (fraction); higher = more cells survive
# Conditions: first compound 8 µM
# Outline: (§1)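 Values are medians from duplicate plates. Each reflects relative viability, defined as the nuclei count of treated wells over that of vehicle wells. Lung cancer cell lines in 1536-well plates were pin-tool dosed one day after seeding with one drug alone or with a fixed anchor-drug dose plus five library-drug doses (not always all listed) in √10 steps, then fixed, stained and imaged at 4× after 5 days.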
row,Cell Line,relative viability
1,NCI-H1437,0.66
2,NCI-H1755,0.89
3,HCC-15,0.985
4,NCI-H1793,0.71
5,PC-14,1.11
6,EKVX,0.272
7,LC-2-ad,0.865
8,NCI-H1944,0.748
9,NCI-H1975,0.952

# Compound: O=C(NC1CCNCC1)c1n[nH]cc1NC(=O)c1c(Cl)cccc1Cl [AT-7519] + Cc1nc(NC(=O)N2CCC[C@H]2C(N)=O)sc1-c1ccnc(C(C)(C)C(F)(F)F)c1 [Alpelisib] (partner 2 µM)
# Assay: as above
# Conditions: first compound 0.01 µM
# Outline: as §1
row,Cell Line,relative viability
1,HOP-62,1.19
2,LU99A,0.612
3,BEN,1.03
4,HARA,0.836
5,HCC-78,0.142
6,NCI-H322M,0.823
7,LCLC-97TM1,0.29
8,A-427,1.11
9,NCI-H441,0.685
10,NCI-H1734,0.645
11,NCI-H460,0.667
12,NCI-H2347,1.2
13,NCI-H1395,1.18
14,201T,0.972
15,NCI-H1915,1.06
16,HCC-827,1.03
17,LXF-289,1.03

row,Cell Line,relative viability
1,NCI-H23,0.561
2,NCI-H647,1.13
3,CAL-12T,1.27
4,NCI-H1651,1.03
5,EPLC-272H,0.905
6,NCI-H1355,0.813
7,NCI-H3122,0.827
8,NCI-H1437,1.05
9,NCI-H1755,0.856
10,HCC-15,0.959
11,NCI-H1793,0.574
12,PC-14,0.839
13,EKVX,0.836
14,LC-2-ad,0.914
15,NCI-H1944,0.86
16,NCI-H1975,0.63

# Same assay, conditions: first compound 0.03162 µM
row,Cell Line,relative viability
1,HOP-62,0.965
2,LU99A,0.435
3,BEN,0.954
4,HARA,0.72
5,HCC-78,0.286
6,NCI-H322M,0.725
7,LCLC-97TM1,0.195
8,A-427,1.06
9,NCI-H441,0.706
10,NCI-H1734,0.655
11,NCI-H460,0.526
12,NCI-H2347,0.952
13,NCI-H1395,1.06
14,201T,1.05
15,NCI-H1915,1
16,HCC-827,0.999
17,LXF-289,1.07

row,Cell Line,relative viability
1,NCI-H23,0.785
2,NCI-H647,1.07
3,CAL-12T,1.02
4,NCI-H1651,0.956
5,EPLC-272H,0.957
6,NCI-H1355,0.805
7,NCI-H3122,0.699
8,NCI-H1437,0.931
9,NCI-H1755,0.95
10,HCC-15,0.905
11,NCI-H1793,0.632
12,PC-14,1
13,EKVX,0.86
14,LC-2-ad,0.843
15,NCI-H1944,0.787
16,NCI-H1975,0.658

# Same assay, conditions: first compound 0.3162 µM
row,Cell Line,relative viability
1,HOP-62,0.936
2,LU99A,0.478
3,BEN,1.12
4,HARA,0.816
5,HCC-78,0.305
6,NCI-H322M,0.721
7,LCLC-97TM1,0.254
8,A-427,1.01
9,NCI-H441,0.617
10,NCI-H1734,0.613
11,NCI-H460,0.322
12,NCI-H2347,1.08
13,NCI-H1395,0.898
14,201T,1.02
15,NCI-H1915,1.04
16,HCC-827,1.02
17,LXF-289,1.08

row,Cell Line,relative viability
1,NCI-H23,0.68
2,NCI-H647,0.967
3,CAL-12T,0.534
4,NCI-H1651,0.811
5,EPLC-272H,0.885
6,NCI-H1355,0.884
7,NCI-H3122,0.813
8,NCI-H1437,0.816
9,NCI-H1755,1.03
10,HCC-15,0.763
11,NCI-H1793,0.907
12,PC-14,1
13,EKVX,0.76
14,LC-2-ad,0.904
15,NCI-H1944,0.799
16,NCI-H1975,0.381

# Same assay, conditions: first compound 1 µM
row,Cell Line,relative viability
1,HOP-62,0.668
2,LU99A,0.42
3,BEN,0.76
4,HARA,0.541
5,HCC-78,0.283
6,NCI-H322M,0.824
7,LCLC-97TM1,0.162
8,A-427,0.453
9,NCI-H441,0.299
10,NCI-H1734,0.434
11,NCI-H460,0.0207
12,NCI-H2347,0.771
13,NCI-H1395,0.584
14,201T,1.09
15,NCI-H1915,0.732
16,HCC-827,0.708
17,LXF-289,0.921

row,Cell Line,relative viability
1,NCI-H23,0.45
2,NCI-H647,0.53
3,CAL-12T,0.13
4,NCI-H1651,0.836
5,EPLC-272H,0.856
6,NCI-H1355,0.547
7,NCI-H3122,0.263
8,NCI-H1437,0.477
9,NCI-H1755,0.871
10,HCC-15,0.406
11,NCI-H1793,0.774
12,PC-14,0.912
13,EKVX,0.745
14,LC-2-ad,0.472
15,NCI-H1944,0.74
16,NCI-H1975,0.152

# Compound: C1=CC2=C(C=C(C(=C2N=C1)O)N=NC3=CC4=C(C=C3)C=C(C=C4)S(=O)(=O)O)S(=O)(=O)O + Cc1cc(Nc2cc(N3CCN(C)CC3)nc(Sc3ccc(NC(=O)C4CC4)cc3)n2)n[nH]1 [Tozasertib] (partner 0.1 µM)
# Assay: as above
# Conditions: first compound 0.08 µM
# Outline: as §1
row,Cell Line,relative viability
1,HOP-62,0.458
2,LU99A,0.289
3,BEN,0.55
4,HARA,0.105
5,HCC-78,0.41
6,NCI-H322M,0.541
7,LCLC-97TM1,0.279
8,A-427,0.235
9,NCI-H441,0.636
10,NCI-H1734,0.263
11,NCI-H460,0.627
12,NCI-H2347,0.59
13,NCI-H1395,0.788
14,201T,1.03
15,NCI-H1915,0.471
16,HCC-827,0.448
